# Measured values published in article PMC8583936, “Machine Learning Assisted Approach for Finding Novel High Activity Agonists of Human Ectopic Olfactory Receptors” (International Journal of Molecular Sciences, 2021).
# Where “and” joins values, the source holds several entries; their conditions need not be identical. Equal entries are not always repeated.
# Assays:
# OR1A1 [1] = biological target: T1, OR1A1 (Homo sapiens, UniProt Q9P1Q5); details: cited from earlier work
# T1 sequence (Q9P1Q5 1-309): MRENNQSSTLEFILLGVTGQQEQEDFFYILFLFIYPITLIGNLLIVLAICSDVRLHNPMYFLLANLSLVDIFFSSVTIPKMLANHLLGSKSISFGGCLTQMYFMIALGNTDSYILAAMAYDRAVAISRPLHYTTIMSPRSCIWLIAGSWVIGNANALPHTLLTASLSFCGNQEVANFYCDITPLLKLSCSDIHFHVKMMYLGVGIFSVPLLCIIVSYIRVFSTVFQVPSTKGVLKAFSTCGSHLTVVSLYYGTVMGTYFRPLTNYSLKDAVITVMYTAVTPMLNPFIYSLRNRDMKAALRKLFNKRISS
# OR2W1 [2] = biological target: T2, OR2W1 (Homo sapiens, UniProt Q9Y3N9); details: cited from earlier work
# T2 sequence (Q9Y3N9 1-320): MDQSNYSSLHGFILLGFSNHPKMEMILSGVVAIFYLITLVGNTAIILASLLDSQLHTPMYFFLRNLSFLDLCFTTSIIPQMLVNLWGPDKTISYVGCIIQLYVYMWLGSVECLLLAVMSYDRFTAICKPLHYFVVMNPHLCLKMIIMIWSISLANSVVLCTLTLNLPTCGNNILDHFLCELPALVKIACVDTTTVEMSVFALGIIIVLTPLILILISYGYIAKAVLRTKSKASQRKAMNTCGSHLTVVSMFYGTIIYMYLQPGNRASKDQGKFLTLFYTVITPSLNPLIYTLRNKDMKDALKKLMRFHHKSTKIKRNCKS
# OR2W1 [3] = biological target: T2, OR2W1; assay: Dual-Glo luciferase reporter gene assay, OR2W1 in Hana3A cells; type: cell-based; set-up: The open reading frames of ORs were amplified using Phusion polymerase; Rho-tag (first 20 amino acids of human rhodopsin) (N); expressed in transfected cells; host or cells: Hana3A cells (derived from HEK293T), pCI vector; co-transfected with human RTP1S, M3 receptor, CRE-Luc and SV40-RL; details: OR2W1; for normilazed value = (L-400/R-400): log[molecule], three replicates
# Method: (§1) Hana3A cells were maintained in minimal essential medium containing 10% FBS (vol/vol) with penicillin-streptomycin and amphotericin B (1/200 each vol/vol) at 37 °C and 5% CO2. Hana3A cells are derived from HEK293T [57] and are optimized for OR studies as shown in several studies, compared to earlier OR expression in Sf9 insect cells in Gat et al., and in Xenopus oocytes, COS-7, PC12h and CHO-K1 cells in Katada et al..
# (§2) The Dual-Glo luciferase assay system (Promega, Madison, WI, USA) was used to evaluate the functionality of wild-type OR1A1 and OR2W1 in an in vitro system. The open reading frames of ORs were amplified using Phusion polymerase (Thermo Fisher Scientific, Waltham, MA, USA). Amplified fragments were cloned into pCI expression vector (Promega, Madison, WI, USA) containing the sequence encoding the first 20 amino acids of human rhodopsin (Rho-tag) at N-terminal. Hana3A cells have been cultured and plated the day before transfection with 6 mL at 1/10 of a 100% confluence 100 mm plate into 96-well plates coated with poly D-lysine. After overnight incubation, the required genes were transfected using, for each plate, 5 ng SV40-RL, 10 ng CRE-Luc, 5 ng human RTP1S [72], 2.5 ng M3 receptor [73] and 5 ng of receptor (OR1A1, OR2W1 or empty vector Rho-pCI) plasmid. After around 18 h of transfection, cells were stimulated during 3.5 h by 25 µL of odorant diluted in CD293 + 1% glutamine + 30 µM CuCl2. Odorants were obtained from Sigma Aldrich (St. Louis, MO, USA) and diluted at 1 M concentration in DMSO as stock solutions. […] The luminescence of Firefly (Luc) and Renilla (Rluc) luciferase, were then sequentially monitored by injecting the corresponding substrate following the supplier’s protocol. The activity in each well was normalized as (Luc-400)/(Rluc-400). The response of the receptor was also normalized to its basal activity as (NLX/NL0)-1 where NL0 is the normalized luminescence value at 0 µM of odorant and NLX the value at X µM. […] Raw results were first analyzed with Excel (Microsoft Corporation, Albuquerque, NM, USA) and dose response curves, max efficacy and EC50 have been determined with GraphPrism 6 software (GraphPad Software, La Jolla, CA, USA). Areas under the curves (AUC) were calculated in Excel by summing all the OR responses at different concentrations for each odorant.
# OR1A1 [4] = biological target: T1, OR1A1; assay: Dual-Glo luciferase reporter gene assay, OR1A1 in Hana3A cells; type: cell-based; set-up: The open reading frames of ORs were amplified using Phusion polymerase; Rho-tag (first 20 amino acids of human rhodopsin) (N); expressed in transfected cells; host or cells: Hana3A cells (derived from HEK293T), pCI vector; co-transfected with human RTP1S, M3 receptor, CRE-Luc and SV40-RL; details: OR1A1; for normilazed value = (L-400/R-400): three replicates
# Method: as §1, §2
# [5] = log(agonist) vs. response (three parameters), 95% CI (profile likelihood), normalized (L-400/R-400)
structure (smiles),measurement,setting,value
O=C(c1ccccc1)c1ccccc1 [Benzophenone],Class (agonist / non-agonist / conflicting info.) for OR1A1,OR1A1 [1],agonist
same,Class (agonist / non-agonist / antagonist / conflicting info.) for OR2W1,OR2W1 [2],agonist
same,Bottom,OR2W1 [3]; [5],9.831 to 25.58
same,Top,OR2W1 [3]; [5],33.11 to 38.76
same,normilazed value = (L-400/R-400),OR2W1 [3]; M = -3.5,18.7324 and 22.6176 and 22.52
same,normilazed value = (L-400/R-400),OR2W1 [3]; M = -3.75,27.3072 and 27.4246
same,normilazed value = (L-400/R-400),OR2W1 [3]; M = -4,38.4836
same,normilazed value = (L-400/R-400),OR2W1 [3]; M = -4.25,38.5091 and 37.4777
same,normilazed value = (L-400/R-400),OR2W1 [3]; M = -4.5,37.1848 and 47.4935
same,normilazed value = (L-400/R-400),OR2W1 [3]; M = -4.75,39.8168 and 41.5774 and 37.3522
same,normilazed value = (L-400/R-400),OR2W1 [3]; M = -5,38.9191 and 40.737 and 39.7699
same,normilazed value = (L-400/R-400),OR2W1 [3]; M = -5.25,38.6807 and 38.6347 and 47.5267
same,normilazed value = (L-400/R-400),OR2W1 [3]; M = -5.5,41.7726 and 40.3216 and 44.1867
same,normilazed value = (L-400/R-400),OR2W1 [3]; M = -6,27.5667 and 27.048
same,Bottom,OR1A1 [4]; [5],-1.851 to 2.543
same,Top,OR1A1 [4]; [5],11.67 to 14.46
same,normilazed value = (L-400/R-400),"OR1A1 [4]; log[molecule], M = -3.5",7.459 and 7.533 and 8.1639
same,normilazed value = (L-400/R-400),"OR1A1 [4]; log[molecule], M = -3.75",11.5068 and 9.986 and 11.6353
same,normilazed value = (L-400/R-400),"OR1A1 [4]; log[molecule], M = -4",12.912 and 14.5062 and 13.7456
same,normilazed value = (L-400/R-400),"OR1A1 [4]; log[molecule], M = -4.25",14.2415 and 16.6502 and 17.5965
same,normilazed value = (L-400/R-400),"OR1A1 [4]; log[molecule], M = -4.5",12.7776 and 13.5787 and 13.5772
same,normilazed value = (L-400/R-400),"OR1A1 [4]; log[molecule], M = -4.75",11.0413 and 12.4085 and 13.0495
same,normilazed value = (L-400/R-400),"OR1A1 [4]; log[molecule], M = -5",8.171 and 9.262 and 9.035
same,normilazed value = (L-400/R-400),"OR1A1 [4]; log[molecule], M = -5.25",6.73 and 6.359 and 7.725
same,normilazed value = (L-400/R-400),"OR1A1 [4]; log[molecule], M = -5.5",4.815 and 4.814 and 5.195
same,normilazed value = (L-400/R-400),"OR1A1 [4]; log[molecule], M = -5.75",3.111 and 2.689 and 2.548
same,normilazed value = (L-400/R-400),"OR1A1 [4]; log[molecule], M = -6",2.109 and 2.273 and 2.067
same,EC50,"OR1A1 [4]; three-parameter fit, 95% CI (profile likelihood)",2.47 to 8.3 µM
same,LogEC50,"OR1A1 [4]; three-parameter fit, 95% CI (profile likelihood), log[molecule], M",-5.608 to -5.081
